A short description of the data set: in vivo. The note with it: for MRT last: MRT(0–t); for MRT inf: MRT(0–∞); for half-life: t1/2z; for CL/F: CLz/F; for Vd/F: Vz/F. As for the experimental part:
Samples were analyzed by a UPLC-MS/MS system equipped with a triple quadrupole mass spectrometer (Waters Corp., Milford, MA, United States) and Acquity UPLC BEH C18 column (1.7 μm, 2.1 × 50 mm) at 40°C. The mobile phase consisted of acetonitrile (A) and 0.1% formic acid (B) with a linear gradient elution at 0.4 ml/min for 3 min.
Twelve male Sprague-Dawley rats (230 ± 20 g) were randomly divided into treated and control groups, with 6 in each group. […] The supernatant was mixed with 200 μL of acetonitrile and 20 μL of 0.5 μg/ml diazepam (IS), vortexed for 30 s, centrifuged at 13,000 rpm for 5 min, and the supernatant was injected into the UPLC-MS/MS system for analysis.
Pharmacokinetic parameters were calculated using DAS software (Version 3.2.8). SPSS software (version 16.0; SPSS Inc., Chicago, IL, United States) was used to analyze the significance of differences between the main pharmacokinetic parameters. p < 0.05 was considered statistically significant. GraphPad (version 8.0; GraphPad Software Inc., San Diego, CA, United States) was used to calculate IC50 and plot the plasma concentration-time curves and inhibition plots (type of inhibition, time- and concentration-dependence).

Where [1] appears, read: male, Sprague-Dawley, rat, in vivo, po, 10 mg/kg.
[2] abbreviates: male, Sprague-Dawley, rat, plasma, po, 10 mg/kg, Control group: oral probe cocktail only (10 mg/kg; tolbutamide 1 mg/kg), rats, n = 6.
Setting [3] is: male, Sprague-Dawley, rat, plasma, po, 10 mg/kg, Treated group: oral probe cocktail (10 mg/kg; tolbutamide 1 mg/kg) after 7 days oral poziotinib 5 mg/kg, rats, n = 6.
Setting [4] is: rats, poziotinib 5 mg/kg 7 days vs probes only.
[5] abbreviates: rats, poziotinib 5 mg/kg 7 days vs probes only (Discussion).
[6] abbreviates: male, Sprague-Dawley, rat, in vivo, po, Control group: oral probe cocktail only (10 mg/kg; tolbutamide 1 mg/kg), rats, n = 6.
Where [7] appears, read: male, Sprague-Dawley, rat, in vivo, po, Treated group: oral probe cocktail (10 mg/kg; tolbutamide 1 mg/kg) after 7 days oral poziotinib 5 mg/kg, rats, n = 6.
Setting [8] is: male, Sprague-Dawley, rat, in vivo, po, 10 mg/kg, Control group: oral probe cocktail only (10 mg/kg; tolbutamide 1 mg/kg), rats, n = 6.
The mark [9] stands for this setting: male, Sprague-Dawley, rat, in vivo, po, 10 mg/kg, Treated group: oral probe cocktail (10 mg/kg; tolbutamide 1 mg/kg) after 7 days oral poziotinib 5 mg/kg, rats, n = 6.

The AUC(0-t) is the area under the concentration-time curve up to a stated or last time point. One may read the Tmax as the time at which the peak concentration occurs. In general, AUC(0-inf) refers to total exposure, with the tail of the curve extrapolated. By MRT last is commonly meant a mean duration of stay, worked out from the concentration-time curve. As usually defined, the MRT inf is a mean duration of stay, worked out from the concentration-time curve. What is called half-life is the time in which the quantity being followed falls by half. By CL/F is commonly meant clearance divided by bioavailability, as obtained after extravascular dosing. Usually Cmax stands for the maximum level reached in the sampled fluid or tissue. One may read the Vd/F as the apparent distribution volume after extravascular dosing. Regarding `CC(NC(C)(C)C)C(=O)c1cccc(Cl)c1` (stereo not shown) [Bupropion], under setting [1], the AUC(0-t) was 405 ± 87.3 ng·h/mL, the “AUC(0–∞)” value was 421.07 ± 94.21 ng·h/mL, the “MRT(0–t)” value was determined as 2.37 ± 0.53 h and the “MRT(0–∞)” value came to 2.87 ± 1.15 h. Further, under setting [1], the Tmax was 0.46 ± 0.29 h, the t1/2z worked out at 2.51 ± 1.34 h, the area under the curve AUC(0-inf) amounted to 613 ± 130 ng·h/mL and the MRT last was found to be 3.33 ± 0.84 h. Under setting [1], the MRT inf stood at 4.34 ± 1.58 h and the half-life is 3.35 ± 1.21 h. Moreover, the Tmax (male, Sprague-Dawley, rat, in vivo, po, 10 mg/kg, Tmax) is 0.75 ± 0.27 h. Further, the area under the curve AUC(0-t) (male, Sprague-Dawley, rat, plasma, po, 10 mg/kg) is 565 ± 92.5 ng·h/mL. For the same compound, under setting [2], the apparent clearance (CL/F) was 412 mL/min/kg, the peak concentration (Cmax) stood at 170 ± 60.1 ng/mL and the Vd/F is 85.4 ± 37.7 L/kg. Besides, under setting [3], the CL/F was 281 mL/min/kg, the Cmax is 173 ± 60.8 ng/mL and the Vd/F came to 81.8 ± 38.3 L/kg. Further, under setting [4], the “AUC(0–t) fold higher in treated than control group” value turned out to be 1.39 fold, the “AUC(0–∞) fold higher in treated than control group” value was 1.46 fold, the “CLz/F fold lower in treated than control group” value is 1.47 fold and the “MRT(0–t) fold higher in treated than control group” value came out at 1.41 fold. Also, under setting [4], the “Tmax fold higher in treated than control group” value is 1.63 fold and the “Vz/F fold lower in treated than control group” value came out at 1.04 fold. Also, under setting [5], the “AUC(0–t) of treated group as fold of control group value” came out at 1.40 fold and the “CLz/F of treated group as fold of control group value” is 0.68 fold.

For the compound `COc1ccc2c(c1)[C@]13CCCC[C@@H]1[C@H](C2)N(C)CC3` [Dextromethorphan], for the setting “male, Sprague-Dawley, rat, in vivo, po, AUC(0–t), Control group: oral probe cocktail only (10 mg/kg; tolbutamide 1 mg/kg), rats, n = 6”, the AUC(0-t) was found to be 575 ± 77.7 ng·h/mL. For the setting “male, Sprague-Dawley, rat, in vivo, po, AUC(0–t), Treated group: oral probe cocktail (10 mg/kg; tolbutamide 1 mg/kg) after 7 days oral poziotinib 5 mg/kg, rats, n = 6”, the area under the curve AUC(0-t) turned out to be 640 ± 197 ng·h/mL. Besides, under setting [6], the AUC(0-inf) worked out at 586 ± 79.3 ng·h/mL, the CL/F is 289 mL/min/kg, the Cmax came out at 152 ± 57.7 ng/mL and the MRT last is 3.12 ± 0.37 h. Moreover, under setting [6], the MRT inf stood at 3.35 ± 0.47 h, the Vd/F is 49 ± 10.7 L/kg and the half-life is 1.98 ± 0.43 h. Moreover, under setting [7], the AUC(0-inf) was 722 ± 231 ng·h/mL, the CL/F was 250 mL/min/kg, the Cmax came out at 153 ± 42.3 ng/mL and the MRT last came to 3.54 ± 0.51 h. Besides, under setting [7], the MRT inf worked out at 5.19 ± 2.68 h, the Vd/F stood at 75.5 ± 33.1 L/kg and the half-life was 3.72 ± 2.09 h. The Tmax (male, Sprague-Dawley, rat, in vivo, po, Tmax, Control group: oral probe cocktail only (10 mg/kg; tolbutamide 1 mg/kg), rats, n = 6) turned out to be 1.04 ± 0.56 h. Besides, where the note is “male, Sprague-Dawley, rat, in vivo, po, Tmax, Treated group: oral probe cocktail (10 mg/kg; tolbutamide 1 mg/kg) after 7 days oral poziotinib 5 mg/kg, rats, n = 6”, the Tmax was found to be 1.58 ± 0.92 h. In addition, the “difference in main pharmacokinetic parameters between treated and control group (in words)” value under setting [4] is “no significant differences”.

As to `Cc1ncc2n1-c1ccc(Cl)cc1C(c1ccccc1F)=NC2` [Midazolam], the AUC(0-t) (male, Sprague-Dawley, rat, in vivo, po, 10 mg/kg, AUC(0–t), Control group: oral probe cocktail only (10 mg/kg; tolbutamide 1 mg/kg), rats, n = 6) turned out to be 1350 ng·h/mL. Moreover, for the setting “male, Sprague-Dawley, rat, in vivo, po, 10 mg/kg, AUC(0–t), Treated group: oral probe cocktail (10 mg/kg; tolbutamide 1 mg/kg) after 7 days oral poziotinib 5 mg/kg, rats, n = 6”, the exposure AUC(0-t) came to 1280 ng·h/mL. Moreover, under setting [8], the total exposure AUC(0-inf) amounted to 1360 ng·h/mL, the apparent clearance CL/F is 128 mL/min/kg, the Cmax turned out to be 868 ± 251 ng/mL and the mean residence time MRT last stood at 1.58 ± 0.23 h. Besides, under setting [8], the MRT inf came to 1.62 ± 0.24 h, the Vd/F is 18.6 ± 5.95 L/kg and the half-life is 1.7 ± 0.55 h. Also, under setting [9], the AUC(0-inf) amounted to 1310 ng·h/mL, the CL/F was 139 mL/min/kg, the Cmax came to 582 ± 296 ng/mL and the MRT last was found to be 2.01 ± 0.43 h. Besides, under setting [9], the MRT inf is 2.44 ± 1.12 h, the Vd/F is 32.8 ± 20.8 L/kg and the half-life is 2.67 ± 1.39 h. For the same compound, the Tmax (male, Sprague-Dawley, rat, in vivo, po, 10 mg/kg, Tmax, Control group: oral probe cocktail only (10 mg/kg; tolbutamide 1 mg/kg), rats, n = 6) was found to be 0.33 ± 0.13 h. Moreover, the Tmax (male, Sprague-Dawley, rat, in vivo, po, 10 mg/kg, Tmax, Treated group: oral probe cocktail (10 mg/kg; tolbutamide 1 mg/kg) after 7 days oral poziotinib 5 mg/kg, rats, n = 6) was determined as 0.58 ± 0.34 h. The “difference in main pharmacokinetic parameters between treated and control group (in words)” value under setting [4] is “not significant”.

The record behind these values is publication PMC7970697, “Inhibition and Induction by Poziotinib of Different Rat Cytochrome P450 Enzymes In Vivo and in an In Vitro Cocktail Method” (Frontiers in Pharmacology, 2021).
